As usually defined, the EC50 is the concentration needed to bring the measured effect to its halfway point. As a reminder, the CC50 is the concentration that lowers cell viability or growth by half. The term melting point denotes the temperature of the solid-liquid transition.

The record followed here is patent US20220348592A1, “FUSED HETEROCYCLIC DERIVATIVES” (Janssen Sciences Ireland Unlimited Company, priority 2019, published 2022).

Data set [1] has as its system HBV. As to the kind of experiment: HBV replication inhibition assay (BDNA assay) in HepG2.2.15 cells. In kind it is cell-based. Conditions: Hepatitis B virus, HepG2.2.15, 144 h, 6 days treatment, encapsidated HBV DNA in supernatant, BDNA QuantiGene assay. How it is done: HBV replication inhibition by the disclosed compounds were determined in cells infected or transfected with HBV or cells with stably integrated HBV, such as HepG2.2.15 cells (Sells et al. 1987). In this example, HepG2.2.15 cells were maintained in cell culture medium containing 10% fetal bovine serum (FBS), Geneticin, L-glutamine, penicillin and streptomycin. HepG2.2.15 cells were seeded in 96-well plates at a density of 40,000 cells/well and were treated with serially diluted compounds at a final DMSO concentration of 0.5% either alone or in combination by adding drugs in a checker box format. Cells were incubated with compounds for three days, after which medium was removed and fresh medium containing compounds was added to cells and incubated for another three days. At day 6, supernatant was removed and treated with DNase at 37° C. for 60 minutes, followed by enzyme inactivation at 75° C. for 15 minutes. […] HBV DNA was denatured by addition of 0.2 M NaOH and detected using a branched DNA (BDNA) QuantiGene assay kit according to manufacturer recommendation (Affymetrix). HBV DNA levels were also quantified using qPCR, based on amplification of encapsidated HBV DNA extraction with QuickExtraction Solution (Epicentre Biotechnologies) and amplification of HBV DNA using HBV specific PCR probes that can hybridize to HBV DNA and a fluorescently labeled probe for quantitation. In addition, cell viability of HepG2.2.15 cells incubated with test compounds alone or in combination was determined by using CellTitre-Glo reagent according to the manufacturer protocol (Promega). The mean background signal from wells containing only culture medium was subtracted from all other samples, and percent inhibition at each compound concentration was calculated by normalizing to signals from HepG2.2.15 cells treated with 0.5% DMSO using equation E1. […]
where DMSOave is the mean signal calculated from the wells that were treated with DMSO control (0% inhibition control) and Xi is the signal measured from the individual wells. […]

Data set [2] relates to HBV. As to the kind of experiment: Anti-HBV activity: intracellular HBV DNA by real-time PCR in HepG2.117 cell line. Conditions: HepG2.117 cells, 3 days of treatment, intracellular HBV DNA by real-time PCR, mean value, read-out: HBV-AVE-HepG2.117 EC50 (μM, mean value). Format: cell-based, Hepatitis B virus. The method in brief: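 HepG2.117 cells, a Tet-off inducible HBV-producing line, induced to replicate HBV and then treated with serially diluted compound. After 3 days, intracellular HBV DNA quantified by real-time PCR with HBV-specific primers and probe.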
A general note: Real-time PCR tracks product formation cycle by cycle.

For data set [3], the system named is HepG2.117 cells. As to the kind of experiment: Cytotoxicity in HepG2.117 cells, ATPlite Luminescence Assay. In kind it is cell-based, human. Conditions: incubated for 3 days, mean value, read-out: TOX-HepG2.117 CC50 (μM, mean value). How it is done: (§1) Cytotoxicity of the compounds was tested using HepG2 or HepG2.117 cells, incubated for 3 days in the presence of compounds. The viability of the cells was assessed using the PERKIN ELMER ATPlite Luminescence Assay System.”
(ATP-based viability assays read luminescence as a measure of living cells.)

Assay in data set [4]: as above
Format: cell-based, human. Conditions: human, incubated for 3 days, mean value, read-out: TOX-HepG2.117 CC50 (μM, mean value). As for the experimental part: as §1

Bounds are passed on as bounds.

Regarding `C[C@@H]1Cc2nn3c(c2CN1C(=O)Nc1ccc(F)c(C#N)c1)C(=O)N(C)C[C@H](c1cc[nH]n1)C3` (relative stereo) [Example 7a], the EC50 in data set [1] came out at 0.037 µM.

For `C[C@@H]1Cc2nn3c(c2CN1C(=O)Nc1ccc(F)c(C#N)c1)C(=O)N(C)CC(c1cc[nH]n1)C3` (single isomer, unassigned) [Example 9a, (3R,8R*)—N-(3-Cyano-4-fluorophenyl)-3,10-dimethyl-11-oxo-8-(1H-pyrazol-3-yl)-3,4,8,9,10,11-hexahydro-1H-pyrido[4′,3′:3,4]pyrazolo[1,5-a][1,4]diazepine-2(7H)-carboxamide], the EC50 in data set [1] came to 0.26 µM.

In the case of `C[C@@H]1Cc2nn3c(c2CN1C(=O)c1ccc(Cl)c(Cl)c1)C(=O)N(C)OC(CF)C3` (stereo in doubt) [Compound 47, (4*R,9R)-10-(3,4-Dichlorobenzoyl)-4-(fluoromethyl)-2,9-dimethyl-4,5,8,9,10,11-hexahydro-pyrido[4′,3′:3,4]pyrazolo[5,1-d][1,2,5]oxadiazepin-1(2H)-one], the EC50 in data set [2] was 0.249 µM. The CC50 in data set [3] was found to be 3.63 µM.

`CC(C)N1CCn2nc3c(c2C1=O)CN(C(=O)c1ccc(Cl)c(Cl)c1)CC3` [Compound 2, 2-(3,4-Dichlorobenzoyl)-9-(propan-2-yl)-1,2,3,4,8,9-hexahydropyrido[4′,3′:3,4]pyrazolo[1,5-a]-pyrazin-10(7H)-one] yielded a melting point of 190 °C. The EC50 in data set [2] (Hepatitis B virus, 72 h) was found to be 1.15 µM. Further, the CC50 at 3 days in data set [4] was > 50 µM.

Compound `O=C1NCCCn2nc3c(c21)CN(C(=O)c1ccc(Cl)c(Cl)c1)CC3` [Compound 33, 2-(3,4-Dichlorobenzoyl)-1,2,3,4,7,8,9,10-octahydro-11H-pyrido[4′,3′:3,4]pyrazolo[1,5-a][1,4]-diazepin-11-one] showed a melting point of 237 °C. Besides, the EC50 in data set [2] (Hepatitis B virus, 72 h) amounted to 9.61 µM. For the same compound, the CC50 at 3 days in data set [4] is > 50 µM.

As to `CN1CC(c2ccn(C)n2)Cn2nc3c(c2C1=O)CN(C(=O)Nc1ccc(F)c(C#N)c1)CC3` (stereo not drawn) [Example 5a, N-(3-Cyano-4-fluorophenyl)-10-methyl-8-(1-methyl-1H-pyrazol-3-yl)-11-oxo-3,4,8,9,10,11-hexahydro-1H-pyrido[4′,3′:3,4]pyrazolo[1,5-a][1,4]diazepine-2(7H)-carboxamide], the EC50 in data set [1] was 0.16 µM.

With `CC(c1cnccn1)N1CCn2nc3c(c2C1=O)CN(C(=O)c1ccc(Cl)c(Cl)c1)[C@H](C)C3` (stereo partly drawn) [Example C246], in data set [2] (Hepatitis B virus, 72 h), the EC50 was 0.171 µM. The CC50 at 3 days in data set [4] was > 50 µM.

For `CC(c1nnnn1C)N1CCn2nc3c(c2C1=O)CN(C(=O)c1ccc(Cl)c(Cl)c1)[C@H](C)C3` (stereo partly drawn) [Example C247], in data set [2] (Hepatitis B virus, 72 h), the EC50 was > 2.5 µM. Also, the CC50 at 3 days in data set [4] was > 50 µM.

As to `CC(c1c(F)cccc1F)N1CCn2nc3c(c2C1=O)CN(C(=O)c1ccc(Cl)c(Cl)c1)[C@H](C)C3` (stereo partly drawn) [Example C248], the EC50 in data set [2] (Hepatitis B virus, 72 h) is 0.013 µM. Also, in data set [4], the CC50 at 3 days amounted to 25 µM.

Regarding `CC(c1nncn1C)N1CCn2nc3c(c2C1=O)CN(C(=O)c1ccc(Cl)c(Cl)c1)[C@H](C)C3` (stereo partly drawn) [Example C249], the EC50 in data set [2] (Hepatitis B virus, 72 h) was > 2.5 µM. In data set [4], the cytotoxic concentration (CC50) at 3 days was > 50 µM.

Regarding `CC(c1ccncc1)N1CCn2nc3c(c2C1=O)CN(C(=O)c1ccc(Cl)c(Cl)c1)[C@H](C)C3` (stereo partly drawn) [Example C250], the EC50 in data set [2] (Hepatitis B virus, 72 h) is 0.033 µM. The CC50 at 3 days in data set [4] was > 12.5 µM.
